A short description of data set [1]: Solubility in water and in ethanol. It is filed as physicochemical. The source says: The solubilities of quercetin in water and in ethanol are, by contrast, only 0.04 g/l and 15.8 g/l respectively.
For data set [2] the following is noted: compared with the other investigated hydroxyflavones, over the entire pH range; cited from earlier work.

In brackets after ≈: the same amount, converted by molar mass. Where two headings read alike, the source gives them in different places.

Consider `O=c1c(O)c(-c2ccc(O)c(O)c2)oc2cc(O)cc(O)c12` [quercetin, 3,3′,4′,5,7-pentahydroxyflavone], for which the solubility (in general, how much of the substance goes into solution per volume) in data set [1] (organic solvent or mixture, at 25° C. in ethanol, read-out: solubility in ethanol) turned out to be 15.8 mg/mL (≈ 52.3 mM). Further, the antioxidative action result in data set [2] is on record as “highest activity”.

`CCCCOC1(c2ccc(O)c(O)c2)Oc2cc(O)cc(O)c2C(=O)C1(O)O` (stereo not shown) [2-butoxy-2-(3,4-dihydroxyphenyl)-3,3,5,7-tetrahydroxychroman-4-one]: the solubility in data set [1] (25 °C, organic solvent or mixture) came to 855 mg/mL (≈ 2180 mM); in data set [1] (25 °C, water) it was 2.9 mg/mL (≈ 7.39 mM).
